# Data taken from patent US20220241416A1, “METHODS FOR THE IDENTIFICATION OF SARM1 NADASE ACTIVITY INHIBITORS AND USES THEREOF” (Bar Ilan University, priority 2021, published 2022).
# Values joined by “and” are separate entries in the source; they are usually repeats but may differ in a detail not shown here. Identical values can stand only once.
# Molecular target: T1, hSARM1 (Homo sapiens, UniProt Q6SZW1, E642Q)
# T1 construct: short of the N′ terminal mitochondria) localization signal (26ERL . .; 6xHis (N); TEV cleavage site (N); made in house; host or cells: HEK293F suspension cells
# T1 sequence (Q6SZW1 with tags, fused parts or gaps E642Q): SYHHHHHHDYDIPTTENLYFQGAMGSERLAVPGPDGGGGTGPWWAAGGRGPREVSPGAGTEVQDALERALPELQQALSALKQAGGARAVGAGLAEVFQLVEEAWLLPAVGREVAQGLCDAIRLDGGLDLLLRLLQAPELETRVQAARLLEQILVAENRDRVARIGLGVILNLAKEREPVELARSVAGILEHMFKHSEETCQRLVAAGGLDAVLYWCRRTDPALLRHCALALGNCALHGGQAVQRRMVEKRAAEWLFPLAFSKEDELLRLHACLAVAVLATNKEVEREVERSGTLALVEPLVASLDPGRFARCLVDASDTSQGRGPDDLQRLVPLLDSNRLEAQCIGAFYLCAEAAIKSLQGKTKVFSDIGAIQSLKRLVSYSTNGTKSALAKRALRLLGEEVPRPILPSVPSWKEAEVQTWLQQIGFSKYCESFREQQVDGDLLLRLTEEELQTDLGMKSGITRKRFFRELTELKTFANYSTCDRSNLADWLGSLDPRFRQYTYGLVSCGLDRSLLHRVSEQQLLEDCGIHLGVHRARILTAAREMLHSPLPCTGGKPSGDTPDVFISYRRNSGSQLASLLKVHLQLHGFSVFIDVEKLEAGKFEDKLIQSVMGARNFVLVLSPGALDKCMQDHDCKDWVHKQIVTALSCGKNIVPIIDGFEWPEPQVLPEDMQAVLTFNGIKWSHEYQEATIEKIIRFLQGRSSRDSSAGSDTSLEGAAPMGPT
# Assay: Cryo-EM 2D classification of hSARM1 conformation
# Details: for effect on hSARM1 conformation: 2D classification / GraFix
# Protocol: FIG. 7B: The structural effects of NAD+ and ATP were observed by cryo-EM based on appearance in 2D classification. Presented are the 10 most populated classes (those with the largest number of particles—numbers in green, 1st class is on the left) out of 50-100 from each data collection after the first round of particle picking and classification. By this analysis, the percentage of particles that present full, two-ring structure is 13% (no NAD+); 74% (5 mM NAD+); and 4% (10 mM ATP).
# Cryo-EM grids were prepared by applying 3 μl protein samples to glow-discharged (PELCO easiGlow™ Ted Pella Inc., at 15 mA for 1 minute) holey carbon grids (Quantifoil R 1.2/1.3, Micro Tools GmbH, Germany). The grids were blotted for 4 seconds and vitrified by rapidly plunging into liquid ethane at −182° C. using Leica EM GP plunger (Leica Microsystems, Vienna, Austria). The frozen grids were stored in liquid nitrogen until the day of cryo-EM data collection.
# The data presented herein was collected with three separate cryo-electron microscopes: 1) F30 Polara in Ben-Gurion University, Israel was used for all sample preparation optimization. It was also used to collect data sets without and with potential inhibitors (shown in FIG. 1C and the ATP and NMN supplemented classes in FIG. 7B). Samples were imaged under low-dose conditions on a FEI Tecnai F30 Polara microscope (FEI, Eindhoven) operating at 300 kV. Datasets were collected using SerialEM (D. N. Mastronarde, et al. Journal of structural biology 152, 36-51 (2005)) on a K2 Summit direct electron detector fitted behind an energy filter (Gatan Quantum GIF) with a calibrated pixel size of 1.1 Å. The energy filter was set to remove electrons >±10 eV from the zero-loss peak energy. The defocus range was set from −1.0 μm to −2.5 μm. The K2 summit camera was operated in counting mode at a dose rate of 8 electrons/pixel/second on the camera. Each movie was dose fractionated into 50 image frames, with total electron dose of 80ē/Å2. Dose-fractionated image stacks were aligned using MotionCorr2 (X. Li et al., Nature methods 10, 584-590 (2013)), and their defocus values estimated by Gctf (K. Zhang, et al. J Struct Biol 193, 1-12 (2016)). The sum of the aligned frames was used for further processing and the rest of the processing was done in Cryosparc V2 (A. Punjani, J. et al. Nature Methods 14, 290-+(2017)). Particles were auto-picked and subjected to local motion correction to correct for beam-induced drift and then 2D classification with 50 classes. The best (based on shape, number of particles and resolution) classes were manually selected containing 5459 (for hSARM1E642Q) and 43868 (for SAM1-2) particles. 1 initial 3D reference was prepared from all particles and 3D refinement imposing C8 symmetry resulted the final map. […]
SMILES,"percentage of particles that present full, two-ring structure (5 mM NAD+, 13% or <20% without NAD+)","percentage of particles that present full, two-ring structure (10 mM ATP, 13% without supplement) [%]",effect on hSARM1 conformation
"NC(=O)c1ccc[n+]([C@@H]2O[C@H](COP(=O)([O-])OP(=O)(O)OC[C@H]3O[C@@H](n4cnc5c(N)ncnc54)[C@H](O)[C@@H]3O)[C@@H](O)[C@H]2O)c1 [NAD+, Nicotinamide adenine dinucleotide]",> 80% and 74%,,
Nc1ncnc2c1ncn2[C@@H]1O[C@H](COP(=O)(O)OP(=O)(O)OP(=O)(O)O)[C@@H](O)[C@H]1O [ATP],,4,did not affect hSARM1 conformation
OCC(O)CO [glycerol],,,imposes hSARM1 compact conformation
